Results reported in patent US12076300B2, “Dosage regime with esketamine for treating major depressive disorder” (priority 2019, dated 2024).

Assays:
[1] = Single dose, randomized, open-label, crossover study in healthy volunteers: pharmacokinetics; settings: plasma analyte after single dose esketamine hydrochloride 20 mg oral solution; 15 subjects
Description: A randomized, open-label 4-way crossover study in 16 healthy male and female subjects was held wherein said subjects were placed in a randomly assigned order and administered esketamine. Each subject was assigned to 1 of 4 treatment sequences according to a randomization code such that 4 subjects were assigned to each treatment sequence. There was a wash-out period of at least 7 days between dosing periods with doses consisting of either oral or intravenous esketamine hydrochloride. The study consisted of an eligibility screening period of 28 days, 4 study periods involving administration of a single dose of esketamine hydrochloride followed by safety assessments with blood sampling for PK purposes up to 72 hours after study drug administration, discharge at 72 hours after study drug administration and a follow-up visit 7-14 days after the last PK blood sample was taken on Day 4.

[2] = system: human peripheral blood lymphocytes (HPBL)
Description: The clastogenic potential of (S)-norketamine was evaluated in the in vitro mammalian chromosome aberration test using human peripheral blood lymphocytes (HPBL) in both the absence and presence of an induced metabolic activation system (the 9000 g supernatant [S9] microsomal fraction of liver homogenate from rats exposed to phenobarbital/5,6-benzoflavone).
The study was conducted in 2 phases, with a preliminary toxicity test used to determine the appropriate concentrations for the definitive chromosomal aberration assay. Water was used as a negative (vehicle) control. In both phases, the cells were treated for 3 and 21 hours in the absence of S9 mix and for 3 hours in the presence of S9 mix. The mitotic index was assessed for all cultures to determine cytotoxicity. Ten concentrations, ranging from 2.62 to 260.16 μg/mL, were evaluated in the preliminary toxicity test.

[3] = Pharmacokinetics of 40 mg oral esketamine in MDD participants treated with an antidepressant; assay type: in vivo, human; settings: 40 mg oral esketamine hydrochloride once daily for 7 days, 15 MDD subjects
Description: An 18 subject in patient study to assess the safety, tolerability, and pharmacokinetics of 40 mg oral esketamine in MDD participants currently treated with an antidepressant drug was held. In an, up to, 35 day screening phase, the subjects were assessed for study eligibility and, if needed, washed out from disallowed drugs. During this period, it was also determined whether the subject's current dose of oral antidepressant medication had been stable for at least 4 weeks.

[4] = Domino (2010); cited from earlier work
male Sprague Dawley rats = test: 7-day forced swim test; assay type: in vivo
Description: Groups of, 6-7 week old, male Sprague Dawley rats were administered esketamine by intraperitoneal injection and their behavioral despair assessed by a forced swim test. The animals, in cohorts of 10, were administered either a single dose of 15 mg/kg esketamine, 7 daily doses of either 7.5 or 15 mg/kg esketamine or a vehicle control, and the test performed 30 minutes after dosing. Statistical evaluation was performed using an ordinary One-Way ANOVA, t Test and an Uncorrected Fisher's LSD comparisons test.

[5] = system: healthy male and female subjects; test: Single dose crossover study in healthy volunteers: treatment-emergent adverse events; assay type: in vivo, human; settings: all treatments, 16 subjects
Description: A total of 128 TEAEs (treatment-emergent adverse event) were reported by 15 of 16 (94%) subjects of which 79 TEAEs reported by 14 of 16 (88%) subjects were to be related to the study drug. Overall, a total of 14 of 128 TEAEs reported by 4 (25%) subjects were of moderate severity and 114 of 128 TEAEs reported by 15 (94%) subjects were of mild severity. […] The most frequently occurring adverse events (reported more than twice) were headache, dizziness, hypokinesia, feeling abnormal, fatigue, euphoric mood inappropriate affect, nausea and hyperhidrosis. Table 4 presents the frequency of the most frequently reported related TEAEs as a percentage of the subjects that experienced an adverse effect per treatment.

[6] = system: human peripheral blood lymphocytes (HPBL); remark: listed apart in the source
Description: The clastogenic potential of esketamine was evaluated in the in vitro mammalian chromosome aberration test using human peripheral blood lymphocytes (HPBL) in both the absence and presence of an induced metabolic activation system (the 9000 g supernatant [S9] microsomal fraction of liver homogenate from rats exposed to Aroclor-1254).
The study was conducted in 2 phases, with a preliminary toxicity test used to determine the appropriate concentrations for the definitive chromosomal aberration assay. Water was used as a negative (vehicle) control. Toxicity (defined as ≥45% reduction in MI relative to the vehicle control) was evaluated at 9 concentrations, ranging from 0.0238 to 238 μg/ml, after exposure of HPBL to esketamine for 20 hours in the absence of S9 activation, or for 4 hours, either in the presence or absence of S9 activation, followed by a 16-hour recovery period.
The definitive chromosome aberration assay evaluated HPBL cells after exposure to esketamine for 20 hours in the absence of S9 activation, or for 4 hours, either in the presence of absence of S9 activation, followed by a 16-hour recovery. Positive controls for chromosomal aberrations in non-activated and S9-activated evaluations, respectively, consisted of mitomycin C (MMC, 0.6 and 0.3 μg/mL for the 4- and 20-hour exposures, respectively) and cyclophosphamide (CP, 2.5, 5, and 7.5 μg/mL). […] Initially, the doses selected for evaluation of chromosomal aberrations were 60, 120, and 238 μg/mL for the non-activated 4- and 20-hour treatment conditions; and 30, 60, and 200 μg/mL for the S9-activated 4-hour treatment condition.

[7] = Repeated dose 28 day toxicokinetics; settings: males vs females
Description: The objective of the study was to assess the potential toxicity, neurobehavioral effects, and toxicokinetics (TK) of esketamine when administered orally, via gavage, to Sprague Dawley rats for 28 days and to evaluate recovery during a 14-day drug-free period. Fifty male and 50 female rats were randomized into 4 groups (15/sex/Groups 1 and 4; 10/sex/Groups 2 and 3). Esketamine was administered via oral gavage once daily for 28 consecutive days to males at 0 (vehicle control), 6, 10 or 30 mg/kg/day and females at 0 (vehicle control), 2, 10 or 20 mg/kg/day in a dose volume of 10 mL/kg. Animals were observed until euthanized and necropsied on Day 29 (10/sex/group) or 43 (5/sex from Groups 1 and 4). Toxicity was evaluated based on mortality, clinical observations, body weights, food consumption, ophthalmology, motor activity, functional observational battery, clinical pathology (clinical chemistry, hematology, coagulation and urinalysis), organ weights, anatomic (macroscopic or microscopic) pathology. Toxicokinetic animals (3/sex/Group 1; 6/sex/Groups 2, 3, and 4) were similarly dosed and bled on Day 1 and during Week 4 for toxicokinetic analysis.

N[C@]1(c2ccccc2Cl)CCC[C@H](O)C1=O [(2S,6S)-OH-Norketamine, (2S,6S)-2-Amino-2-(2-chlorophenyl)-6-hydroxycyclohexanone]
t1/2, geometric mean [1]: 7.83 h

N[C@]1(c2ccccc2Cl)CCCCC1=O [(S)-norketamine, (2S)-2-(2-Chlorophenyl)-2-(amino) cyclohexanone]
clastogenicity (structural and numerical chromosomal aberrations) [2]: non-clastogenic

CN[C@]1(c2ccccc2Cl)CCCCC1=O [esketamine, (2S)-2-(2-Chlorophenyl)-2-(methylamino) cyclohexanone]
mean esketamine Cmax [3]: 11.82 ng/mL
AUC(0-t) ([3]; human, in vivo, read-out: mean esketamine AUC0-t): 35.6 ng·h/mL
psychotomimetic side effects compared with (R)-ketamine [4]: greater undesirable psychotomimetic side effects
antidepressant-like effect, continuous 7-day treatment vs single acute dose (male Sprague Dawley rats; same dose levels): stronger antidepressant-like effect than a single acute dose
effect on immobility time, acute treated rats (male Sprague Dawley rats; single dose of 15 mg/kg intraperitoneal, test 30 minutes after dosing): 42 % of control
total number of TEAEs reported [5]: 128
Cochran-Armitage test for dose response of structural aberrations [6]: positive for a dose response
induction of numerical chromosomal aberrations [6]: negative
induction of structural and numerical chromosomal aberrations [6]: negative
toxicity (≥45% reduction in MI relative to the vehicle control), preliminary toxicity test [6]: not observed at any dose
cytotoxicity (≥45% reduction in mitotic index relative to the vehicle control), definitive assay ([6]; non-activated 4- and 20-hour treatment, 30 to 238 μg/ml): not observed at any esketamine dose
exposure by sex after normalization for dose level differences [7]: males had lower exposures than females
